Structures can show the parent of a compound that is named as a salt.
Columns and labels:
mice = assay: hypnotic activity: loss of righting reflex after intravenous administration in mice; type: in vivo; conditions: dose causing loss of righting reflex for minimum 30 seconds in 50% of mice, intravenous injection over 10 seconds; for ED50: Mus musculus, iv, read-out: HD50 (the source's name)
Procedure: The hypnotic potency of the α-amino acid phenyl ester derivatives of the invention was determined upon their intravenous administration in mice. The dose required to cause a loss of righting reflex for a minimum period of 30 seconds in 50% of treated mice after intravenous injection over 10 seconds was determined. This dose is termed the HD50 (hypnotic dose50) and is expressed in μmol.kg^−1.

GABAA receptors = assay: inhibition of [35S]-TBPS binding to rat whole brain membranes; conditions: concentration required to inhibit 50% of [35S]-TBPS binding
Excerpt: γ-Aminobutyric acid (GABA) is the major inhibitory neurotransmitter within the central nervous system and it is probable that compounds potentiating the effects of GABA at GABAA receptors will induce anaesthesia (S. A. Zimmerman, M. V. Jones and N. L. Harrison, J. Pharmacol. Exp. Therap. 1994, 270, 987-991; N. P. Franks and W. R. Lieb, Nature 1994, 367, 607-614). Indeed there is compelling evidence that many hypnotics exert their biological activity via modulation of GABAA receptors, including steroids, barbiturates, benzodiazepines and propofol (D. L. Tanelian, P. Kosek, I. Mody and M. B. Maclver, Anesthesiology 1993, 78, 757-776).
The in vitro effect of the compounds of the invention at GABAA receptors was assessed through determination of their ability to inhibit [^35S]-TBPS ([^35S]-tert-butyl bicyclophosphorothionate) binding to rat whole brain membranes. The concentration of α-amino acid phenyl ester derivative required to inhibit 50% of binding of [^35S]-TBPS was determined. These in vitro experiments were carried out as described in detail by Anderson et al., J.Med.Chem. 1997, 40, 1668-1681.

Row | Compound | HD50 (mice) | IC50 (GABAA receptors) | ED50 (mice)
1 | CCCCC(C(=O)Oc1c(OC)cccc1OC)N(CCOC)CCOC.Cl (racemic) [Example 7ad, (±)-2-[N-bis(2-methoxyethyl)amino]hexanoic acid, 2,6-dimethoxyphenyl ester hydrochloride (1:1) salt] | <12 µmol/kg |  | 
2 | CCC(C(=O)Oc1c(OC)cccc1OC)N(CC(C)OC)CC(C)OC.Cl (racemic) [Example 7ae, (±)-2-[N-bis(2-methoxypropyl)amino]butyric acid, 2,6-dimethoxyphenyl ester hydrochloride (1:1) salt] | 27 µmol/kg |  | 
3 | CCCC(C(=O)Oc1c(OC)cc(C)cc1OC)N(CCOC)CCOC.Cl (racemic) [Example 7af, (±)-2-[N-bis(2-methoxyethyl)amino]pentanoic acid, 2,6-dimethoxy-4-methylphenyl ester hydrochloride (1:1) salt] | 34 µmol/kg |  | 
4 | CCCCC(C(=O)Oc1c(OC)cc(C)cc1OC)N(CCOC)CCOC.Cl (racemic) [Example 7ag, (±)-2-[N-bis(2-methoxyethyl)amino]hexanoic acid, 2,6-dimethoxy-4-methylphenyl ester hydrochloride (1:1) salt] | 34 µmol/kg |  | 
5 | COCCN(CCOC)C(CC(C)C)C(=O)Oc1c(OC)cc(C)cc1OC.Cl (racemic) [Example 7aj, (±)-2-[N-bis(2-methoxyethyl)amino]4-methylpentanoic acid, 2,6-dimethoxy-4-methylphenylester hydrochloride (1:1) salt] | convulsant |  | 
6 | COCCN(C)C(CC(C)C)C(=O)Oc1c(OC)cc(C)cc1OC.Cl (racemic) [Example 7ak, (±)-2-[N-(2-methoxyethyl)-N-methylamino]-4-methylpentanoic acid, 2,6-dimethoxy-4-methylphenylester hydrochloride (1:1) salt] | 28 µmol/kg |  | 
7 | CCC(C(=O)Oc1c(OC)cc(C)cc1OC)N(CCOC)CCOC (racemic) [Example 7b, (±)-2-[N-bis(2-methoxyethyl)amino]butyric acid, 2,6-dimethoxy-4-methylphenyl ester hydrochloride (1:1) salt] |  | 18 µM | 22 µmol/kg
8 | CCC(C(=O)Oc1c(OC)cccc1OC)N(CCOC)CCOC (racemic) [Example 7c, (±)-2-[N-bis(2-methoxyethyl)amino]butyric acid, 2,6-dimethoxyphenyl ester hydrochloride (1:1) salt] |  | 10 µM | 19 µmol/kg
9 | CCOCCN(CCOCC)C(C)C(=O)Oc1c(OC)cccc1OC (racemic) [Example 7d, (±)-2-[N-bis(2-ethoxyethyl)amino]propionic acid, 2,6-dimethoxyphenyl ester hydrochloride (1:1) salt] |  | ≤ 100 µM | 68 µmol/kg
10 | COCCN(CCOC)C(C)C(=O)Oc1c(OC)cc(C)cc1OC (racemic) [Example 7e, (±)-2-[N-bis(2-methoxyethyl)amino]propionic acid, 2,6-dimethoxy-4-methylphenyl ester hydrochloride (1:1) salt] |  | < 100 µM | 52 µmol/kg
11 | COCCN(CCOC)C(C)C(=O)Oc1c(OC)cccc1OC (racemic) [Example 7f, (±)-2-[N-bis(2-methoxyethyl)amino]propionic acid, 2,6-dimethoxyphenyl ester hydrochloride (1:1) salt] |  | < 100 µM | 55 µmol/kg
12 | COc1cc(C)cc(OC)c1OC(=O)C(C)N(C)Cc1ccccc1 (racemic) [Example 7g, (±)-2-[N-methylbenzylamino]propionic acid, 2,6-dimethoxy-4-methylphenyl ester hydrochloride (1:1) salt] |  | 22 µM | 45 µmol/kg
13 | CCN(CC)C(C)C(=O)Oc1c(OC)cc(C)cc1OC (racemic) [Example 7j, (±)-2-[diethylamino]propionic acid, 2,6-dimethoxy-4-methylphenyl ester hydrochloride (1:1) salt] |  | < 50 µM | 43 µmol/kg
14 | CCC(C(=O)Oc1c(OC)cccc1OC)N(C)Cc1ccccc1 (racemic) [Example 7k, (±)-2-[N-methylbenzylamino]butyric acid, 2,6-dimethoxyphenyl ester hydrochloride (1:1) salt] |  | 13 µM | 40 µmol/kg
15 | CCOCCN(CCOCC)C(CC)C(=O)Oc1c(OC)cccc1OC (racemic) [Example 7l, (±)-2-[N-bis(2-ethoxyethyl)amino]butyric acid, 2,6-dimethoxyphenyl ester hydrochloride (1:1) salt] |  | ~100 µM | 
16 | CCOc1cccc(OCC)c1OC(=O)C(CC)N(CCOC)CCOC (racemic) [Example 7n, (±)-2-[N-bis(2-methoxyethyl)amino]butyric acid, 2,6-diethoxyphenyl ester hydrochloride (1:1) salt] |  | 20 µM | 27 µmol/kg
17 | CCC(C(=O)Oc1c(OC(C)C)cccc1OC(C)C)N(CCOC)CCOC (racemic) [Example 7o, (±)-2-[N-bis(2-methoxyethyl)amino]butyric acid, 2,6-di-(1-methyl)ethoxyphenyl ester hydrochloride (1:1) salt] |  | < 100 µM | 64 µmol/kg
18 | CCCC(C(=O)Oc1c(OC)cccc1OC)N(CCOC)CCOC (racemic) [Example 7s, (±)-2-[N-bis(2-methoxyethyl)amino]pentanoic acid, 2,6-dimethoxyphenyl ester hydrochloride (1:1) salt] |  | 4.2 µM | 12 µmol/kg
19 | CCC(C(=O)Oc1c(OC)cc(OC)cc1OC)N(CCOC)CCOC (racemic) [Example 7t, (±)-2-[N-bis(2-methoxyethyl)amino]butyric acid, 2,4,6-trimethoxyphenyl ester hydrochloride (1:1) salt] |  | 14 µM | 21 µmol/kg
20 | COCCN(CCOC)C(C(=O)Oc1c(OC)cccc1OC)C(C)C (racemic) [Example 7u, (±)-3-methyl-2-[N-bis(2-methoxyethyl)amino]butyric acid, 2,6-dimethoxyphenyl ester hydrochloride (1:1) salt] |  | 100 µM | 27 µmol/kg
21 | CCOCCN(CCOCC)C(C)C(=O)Oc1c(OC)cccc1OC (single isomer, unassigned; (+)) [Example 7w, (+)-2-[N-bis(2-ethoxyethyl)amino]propionic acid, 2,6-dimethoxyphenyl ester hydrochloride (1:1) salt] | 35 µmol/kg | ~100 µM | 
22 | CCOCCN(CCOCC)C(C)C(=O)Oc1c(OC)cccc1OC (single isomer, unassigned; (-)) [Example 7x, (−)-2-[N-bis(2-ethoxyethyl)amino]propionic acid, 2,6-dimethoxyphenyl ester hydrochloride (1:1) salt] | 46 µmol/kg | < 100 µM | 
23 | CCCCC(C(=O)Oc1c(OC)cccc1OC)N(CCOC)CCOC.Cl (stereo not shown) [Example 7ah, ξ-2-[N-bis(2-methoxyethyl)amino]hexanoic acid, 2,6-dimethoxyphenyl ester hydrochloride (1:1) salt] | 8 µmol/kg |  | 
24 | CCCCC(C(=O)Oc1c(OC)cccc1OC)N(CCOC)CCOC.Cl (stereo not shown) [Example 7ai, ξ-2-[N-bis(2-methoxyethyl)amino]hexanoic acid, 2,6-dimethoxyphenyl ester hydrochloride (1:1) salt] | 47 µmol/kg |  | 
25 | (±)-2-[N-bis(2-methoxyethyl amino]-3-methylbutyric acid, 2,6-dimethoxy-4-methylphenylester hydrochloride (1:1) salt [Example 7al] | 44 µmol/kg |  | 
